Drawing on patent US20250188110A1, “SPECIFIC SMALL MOLECULE INHIBITORS THAT BLOCK KMT9 METHYLTRANSFERASE ACTIVITY AND FUNCTION” (ALBERT-LUDWIGS-UNIVERSITÄT FREIBURG, priority 2021, published 2025), this text covers ΔTm, IC50 and Kd for 18 molecules.

Experiment [1] concerns the target T1, KMT9 (Homo sapiens, UniProt Q9Y5N5).
T1 sequence (Q9Y5N5 1-214): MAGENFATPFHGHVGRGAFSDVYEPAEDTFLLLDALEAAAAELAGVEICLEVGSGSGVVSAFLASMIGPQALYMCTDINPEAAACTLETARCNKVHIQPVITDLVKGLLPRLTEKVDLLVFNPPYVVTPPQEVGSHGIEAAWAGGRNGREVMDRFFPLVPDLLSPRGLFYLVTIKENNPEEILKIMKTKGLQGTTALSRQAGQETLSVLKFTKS
T1 sequence (Q9UI30 1-120 isoform Q9UI30-2 partner): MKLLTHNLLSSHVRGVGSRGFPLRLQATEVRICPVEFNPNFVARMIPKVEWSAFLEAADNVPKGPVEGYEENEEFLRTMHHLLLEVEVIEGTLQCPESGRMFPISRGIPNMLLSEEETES
In words: KMT9 thermal shift assay (SyproOrange). The format is binding. In a few lines:
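Recombinant KMT9 was incubated with compound and SyproOrange at 25° C in 50 mM BTP pH 8.5, 1 mM MgCl2, 1 mM DTT. It was then heated from 20° C to 95° C at 1° C per 15 s with fluorescence read each step. Tm came from a Boltzmann sigmoidal fit; ΔTm relative to DMSO control, binned in 5 K ranges.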

Experiment [2] deals with T1, KMT9. In words: KMT9 methyltransferase inhibition assay, MTaseGlo luminescence (from entry 155). The format is biochemical. The conditions noted are these: 100 nM KMT9, 5 μM ETF1, 1 μM SAM. The method, then:
For the compounds from entry 155 on in Table 1, the following procedure was used to determine IC50 values: The assay was carried out in white, opaque 384-well OptiPlates (PerkinElmer). For IC50 determination, a 2.5x substrate mix (final assay concentrations: 5 μM ETF1, 1 μM SAM and 1x MTaseGlo Reagent), a 2.5x KMT9 solution (final assay concentration 100 nM) and a 5x inhibitor stock 1:1 dilution series (concentration according to the desired range; dilution series was prepared in assay buffer containing 10% DMSO to obtain a final DMSO concentration of 2% in the assay) were prepared. 2 μL of 5x inhibitor stock and 4 μL of 2.5x KMT9 were pipetted, the plate was spun down at 700 rpm for 1 min using a Hettich UNIVERSAL 320 centrifuge and incubated at room temperature (around 25° C.) for 15 min. The reaction was initiated by adding 4 μL of 2.5x substrate mix, the plate was spun down as described before and incubated at 30° C. for 2 h. Afterwards, 10 μL of 2× MTaseGlo Detection solution was added, the plate was centrifuged as described above and incubated for 60 min at room temperature. Luminescence was measured using a PerkinElmer EnVision 2102 Multilabel Reader. Calculation of inhibition and data fitting was carried out as for entries 1-154. described above.
For the results of the methyltransferase inhibition assay shown as “Inhibition” in Table 1, “I” represents an IC50 less than 0.1 μM, “II” represents an IC50 equal or higher than 0.1 μM and less than 1 μM, “III” represents an IC50 equal or higher than 1 µM and less than 10 µM and “IV” represents an IC50 equal or higher than 10 µM

Experiment [3] deals with T1, KMT9. In words: Microscale thermophoresis (MST) KMT9 binding. In a few lines:
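His-tagged KMT9 (20 nM), RED-Tris-NTA labelled, titrated with varying compound concentrations in 25 mM HEPES pH 7.5, 100 mM NaCl, 1 mM DTT, 0.05% Tween. MST at 40% MST and 100% LED power, Nano-RED excitation; Kd binned A ≤10 nM, B 10–100, C 100–1000, D >1000 nM.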
On the technique in general: MST reads how a fluorescent partner responds to local heating, with and without ligand.

Where [4] appears, read: 500 µM compound, 2 μM KMT9, read-out: Thermal shift (ΔTm).
Where [5] appears, read: MTaseGlo procedure (entries from 155), read-out: Inhibition (IC50).
Setting [6] is: His-tag labelled KMT9 20 nM, read-out: MST (Kd).
Where [7] appears, read: ΔTm, 500 µM compound, 2 μM KMT9, 5X SO, read-out: Thermal shift.
The mark [8] stands for this setting: from entry 155: MTaseGlo assay, read-out: Inhibition.
[9] abbreviates: microscale thermophoresis, His-tag labelled KMT9 (20 nM), read-out: MST.
Setting [10] is: ΔTm class, 500 uM compound, 2 μM KMT9, read-out: Thermal shift.
Setting [11] is: IC50 class, MTaseGlo procedure (entries from 155 on), read-out: Inhibition.
Where [12] appears, read: His-tag labelled KMT9 20 nM, Kd class, read-out: MST.

Read-outs that look alike come from different tables or passages of the source.

Regarding `O[C@@H]1[C@H](O)C(CNCCCNCCc2ccc(F)cc2)C[C@H]1n1cc(-c2cccs2)c2cnc(Cl)nc21` (mixture of isomers) [Compound 581, (1R,2S,3R)-3-(2-chloro-5-(thiophen-2-yl)-7H pyrrolo[2,3-d]pyrimidin-7-yl)-5-(((3-((4-fluorophenethyl)amino)propyl)amino)methyl)cyclopentane-1,2-diol], the ΔTm at 500 µM at KMT9 [1] (setting [4]) was in the range of 10 to 15 °C. For the same molecule, the IC50 at KMT9 [2] (setting [5]) was in the range of 1 to 10 µM. The Kd on KMT9 [3] (setting [6]) is not above 0.01 µM.

Turning to `Nc1nc(Cl)nc2c1c(-c1nccs1)cn2[C@@H]1CC(CN(CCCNCCc2ccc(F)cc2)c2cn[nH]c2)[C@@H](O)[C@H]1O` (single isomer, unassigned) [Compound 543], on KMT9 [1] (setting [4]), the ΔTm at 500 µM is more than 20 °C. In addition, at KMT9 [2] (setting [5]), the IC50 fell in the range of 0.1 to 1 µM. Moreover, the Kd on KMT9 [3] (setting [6]) was not above 0.01 µM.

As to `Nc1ncnc2c1c(-c1nc(Cc3ccccc3)cs1)cn2[C@@H]1C[C@H]([C@@H]2CCCNC2)[C@@H](O)[C@H]1O` (single isomer, unassigned) [Compound 593R], the ΔTm at 500 µM at KMT9 [1] (setting [7]) lay within 15 to 20 °C. At KMT9 [2] (setting [8]), the IC50 is 1 to 10 µM. The Kd on KMT9 [3] (setting [9]) fell in the range of 0.1 to 1 µM.

For `Nc1ncnc2c1c(-c1nc(Cc3ccccc3)cs1)cn2[C@@H]1C[C@H]([C@H]2CCCNC2)[C@@H](O)[C@H]1O` (single isomer, unassigned) [Compound 593S], the ΔTm at 500 µM at KMT9 [1] (setting [7]) lay in the range of 10 to 15 °C. For the same molecule, the IC50 on KMT9 [2] (setting [8]) lay in the range of 1 to 10 µM. Further, the Kd at KMT9 [3] (setting [9]) was 0.1 to 1 µM.

In the case of `CCc1cn([C@@H]2C[C@H](CNCCCNCCc3ccc(C(F)(F)F)cc3)[C@@H](O)[C@H]2O)c2ncnc(N)c12` [Compound 379, (1R,2S,3R,5R)-3-(4-amino-5-ethyl-7H-pyrrolo[2,3-d]pyrimidin-7-yl)-5-(((3-((4-(trifluoromethyl)phenethyl)amino)propyl)amino)methyl) cyclopentane-1,2-diol], the ΔTm at 500 µM at KMT9 [1] (setting [7]) lay in the range of 10 to 15 °C. Further, the IC50 on KMT9 [2] (setting [8]) was 1 to 10 µM. For the same molecule, the Kd on KMT9 [3] (setting [9]) was in the range of 0.1 to 1 µM.

For the molecule `CCc1cn([C@@H]2C[C@H](CNCCCNCCc3ccc(F)cc3)[C@@H](O)[C@H]2O)c2ncnc(N)c12` [Compound 381, (1R,2S,3R,5R)-3-(4-amino-5-ethyl-7H-pyrrolo[2,3-d]pyrimidin-7-yl)-5-(((3-((4-fluorophenethyl)amino)propyl)amino)methyl) cyclopentane-1,2-diol], the ΔTm at 500 µM at KMT9 [1] (setting [7]) is 10 to 15 °C. Also, at KMT9 [2] (setting [8]), the IC50 is 1 to 10 µM. In addition, the Kd at KMT9 [3] (setting [9]) is 0.1 to 1 µM.

In the case of `CCc1cn([C@@H]2C[C@H](CNCCCNCCc3ccc(F)cc3F)[C@@H](O)[C@H]2O)c2ncnc(N)c12` [Compound 383, (1R,2S,3R,5R)-3-(4-amino-5-ethyl-7H-pyrrolo[2,3-d]pyrimidin-7-yl)-5-(((3-((2,4-difluorophenethyl)amino)propyl)amino)methyl) cyclopentane-1,2-diol], on KMT9 [1] (setting [7]), the ΔTm at 500 µM is 10 to 15 °C. Moreover, at KMT9 [2] (setting [8]), the IC50 lay in the range of 1 to 10 µM. Besides, at KMT9 [3] (setting [9]), the Kd lay within 0.01 to 0.1 µM.

Regarding `Nc1ncnc2c1ccn2[C@@H]1C[C@H](c2cc(Cl)cc(Cl)c2)[C@@H](O)[C@H]1O` [Compound 384, (1R,2S,3R,5R)-3-(4-amino-7H-pyrrolo[2,3-a]pyrimidin-7-yl)-5-(3,5-dichlorophenyl) cyclopentane-1,2-diol], the ΔTm at 500 µM on KMT9 [1] (setting [7]) was not above 10 °C. The IC50 at KMT9 [2] (setting [8]) was more than 10 µM. For the same molecule, the Kd on KMT9 [3] (setting [9]) was more than 1 µM.

As for `Nc1ncnc2c1ccn2[C@@H]1C[C@H](c2ccccc2)[C@@H](O)[C@H]1O` [Compound 385, (1R,2S,3R,5R)-3-(4-amino-7H-pyrrolo[2,3-d]pyrimidin-7-yl)-5-phenylcyclopentane-1,2-diol], at KMT9 [1] (setting [7]), the ΔTm at 500 µM was not above 10 °C. The IC50 at KMT9 [2] (setting [8]) was more than 10 µM. Moreover, at KMT9 [3] (setting [9]), the Kd is more than 1 µM.

For the molecule `Nc1ncnc2c1c(Br)cn2[C@@H]1C[C@H](c2ccccc2)[C@@H](O)[C@H]1O` [Compound 386, (1R,2S,3R,5R)-3-(4-amino-5-bromo-7H-pyrrolo[2,3-a]pyrimidin-7-yl)-5-phenylcyclopentane-1,2-diol], at KMT9 [1] (setting [10]), the ΔTm at 500 µM was not above 10 °C. Besides, on KMT9 [2] (setting [11]), the IC50 was more than 10 µM. At KMT9 [3] (setting [12]), the Kd is more than 1 µM.

As to `Nc1ncnc2c1ccn2[C@@H]1C[C@H](c2ccc3ccccc3c2)[C@@H](O)[C@H]1O` [Compound 387, (1R,2S,3R,5R)-3-(4-amino-7H-pyrrolo[2,3-d]pyrimidin-7-yl)-5-(naphthalen-2-yl) cyclopentane-1,2-diol], the ΔTm at 500 µM on KMT9 [1] (setting [7]) was not above 10 °C. The IC50 on KMT9 [2] (setting [8]) was more than 10 µM. Further, the Kd on KMT9 [3] (setting [9]) is more than 1 µM.

Regarding `Nc1ncnc2c1ccn2[C@@H]1C[C@H](c2ccncc2)[C@@H](O)[C@H]1O` [Compound 389, (1R,2S,3R,5R)-3-(4-amino-7H-pyrrolo[2,3-d]pyrimidin-7-yl)-5-(pyridin-4-yl) cyclopentane-1,2-diol], on KMT9 [1] (setting [7]), the ΔTm at 500 µM is not above 10 °C. The IC50 at KMT9 [2] (setting [8]) is more than 10 µM. Also, the Kd on KMT9 [3] (setting [9]) was more than 1 µM.

Take `Nc1ncnc2c1ccn2[C@@H]1C[C@H](c2cccs2)[C@@H](O)[C@H]1O` [Compound 390, (1R,2S,3R,5S)-3-(4-amino-7H-pyrrolo[2,3-a]pyrimidin-7-yl)-5-(thiophen-2-yl) cyclopentane-1,2-diol]: the ΔTm at 500 µM on KMT9 [1] (setting [7]) was not above 10 °C. Also, at KMT9 [2] (setting [8]), the IC50 is more than 10 µM. Also, the Kd on KMT9 [3] (setting [9]) is more than 1 µM.

On to `Nc1ncnc2c1ccn2[C@@H]1C[C@H](c2ccn[nH]2)[C@@H](O)[C@H]1O` [Compound 391, (1R,2S,3R,5R)-3-(4-amino-7H-pyrrolo[2,3-d]pyrimidin-7-yl)-5-(1H-pyrazol-5-yl) cyclopentane-1,2-diol], for which, at KMT9 [1] (setting [10]), the ΔTm at 500 µM is not above 10 °C. Moreover, on KMT9 [2] (setting [11]), the IC50 is more than 10 µM. In addition, the Kd at KMT9 [3] (setting [12]) was more than 1 µM.

In the case of `NCc1cccc([C@H]2C[C@@H](n3cc(Br)c4c(N)nc(Cl)nc43)[C@H](O)[C@@H]2O)c1` [Compound 393, (1R,2S,3R,5R)-3-(4-amino-5-bromo-2-chloro-7H-pyrrolo[2,3-d]pyrimidin-7-yl)-5-(3-(aminomethyl)phen-yl) cyclopentane-1,2-diol], on KMT9 [1] (setting [4]), the ΔTm at 500 µM was 15 to 20 °C. At KMT9 [2] (setting [5]), the IC50 fell in the range of 0.1 to 1 µM. The Kd at KMT9 [3] (setting [6]) was not above 0.01 µM.

As for `Nc1ncnc2c1c(-c1nccs1)cn2[C@@H]1C[C@H](c2cc(Cl)cc(Cl)c2)[C@@H](O)[C@H]1O` [Compound 394, (1R,2S,3R,5R)-3-(4-amino-5-(thiazol-2-yl)-7H-pyrrolo[2,3-d]pyrimidin-7-yl)-5-(3,5-dichlorophenyl) cyclo-pentane-1,2-diol], the ΔTm at 500 µM on KMT9 [1] (setting [7]) was not above 10 °C. Besides, at KMT9 [2] (setting [8]), the IC50 was more than 10 µM. Moreover, on KMT9 [3] (setting [9]), the Kd was more than 1 µM.

`Nc1ncnc2c1c(-c1nccs1)cn2[C@@H]1C[C@H](c2ccccc2)[C@@H](O)[C@H]1O` [Compound 395, (1R,2S,3R,5R)-3-(4-amino-5-(thiazol-2-yl)-7H-pyrrolo[2,3-d]pyrimidin-7-yl)-5-phenylcyclopentane-1,2-diol]: on KMT9 [1] (setting [7]), the ΔTm at 500 µM is not above 10 °C. Also, at KMT9 [2] (setting [8]), the IC50 was more than 10 µM. Besides, the Kd on KMT9 [3] (setting [9]) was more than 1 µM.

For the molecule `CCc1cn([C@@H]2C[C@H](c3ccccc3)[C@@H](O)[C@H]2O)c2ncnc(N)c12` [Compound 396, (1R,2S,3R,5R)-3-(4-amino-5-ethyl-7H-pyrrolo[2,3-d]pyrimidin-7-yl)-5-phenylcyclopentane-1,2-diol], the ΔTm at 500 µM at KMT9 [1] (setting [10]) was not above 10 °C. The IC50 on KMT9 [2] (setting [11]) was more than 10 µM. Besides, the Kd on KMT9 [3] (setting [12]) was more than 1 µM.
